Structures can show the parent of a compound that is named as a salt.
Molecular target: T1, P. mirabilis urease (Proteus mirabilis, UniProt P17086)
T1 construct: it utilizes whole bacterial cells, rather than isolated enzyme preparations; endogenous in cells; host or cells: Proteus mirabilis HI4320, live whole cells
Type: cell-based
Settings: biosynthetic pathway/functional group screen; highest concentration tested 5mM

T1 sequence (P17086 whole entry): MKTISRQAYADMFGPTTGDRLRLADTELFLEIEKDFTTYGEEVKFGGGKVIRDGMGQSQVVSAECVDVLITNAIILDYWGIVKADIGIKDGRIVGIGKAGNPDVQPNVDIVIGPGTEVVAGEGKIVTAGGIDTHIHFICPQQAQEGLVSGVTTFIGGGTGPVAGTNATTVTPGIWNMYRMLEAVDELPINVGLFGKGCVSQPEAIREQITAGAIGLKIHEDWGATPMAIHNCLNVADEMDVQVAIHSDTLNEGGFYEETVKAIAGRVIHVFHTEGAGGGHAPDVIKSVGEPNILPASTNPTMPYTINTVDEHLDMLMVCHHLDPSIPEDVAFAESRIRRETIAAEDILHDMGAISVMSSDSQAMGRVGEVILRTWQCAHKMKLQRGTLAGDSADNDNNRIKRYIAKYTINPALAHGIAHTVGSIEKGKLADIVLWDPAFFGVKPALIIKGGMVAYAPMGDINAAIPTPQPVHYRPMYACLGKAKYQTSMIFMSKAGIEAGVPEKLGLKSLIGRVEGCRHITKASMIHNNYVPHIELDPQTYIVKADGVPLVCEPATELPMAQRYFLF
T1 sequence (P17088 whole entry, further chain): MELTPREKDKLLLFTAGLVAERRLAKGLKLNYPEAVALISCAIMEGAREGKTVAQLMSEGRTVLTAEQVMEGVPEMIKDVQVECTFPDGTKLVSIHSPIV
T1 sequence (P17087 whole entry, further chain): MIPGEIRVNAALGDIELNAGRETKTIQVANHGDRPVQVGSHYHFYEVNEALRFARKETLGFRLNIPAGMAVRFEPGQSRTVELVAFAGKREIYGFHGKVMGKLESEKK

Structure (SMILES)	Dampens urease activity
O=C(O)C(=O)Cc1cnc[nH]1 [Imidazole pyruvate, Imidazole pyruvic acid hydrobromide hydrate]	No

Same assay, conditions: biosynthetic pathway/functional group screen; highest concentration tested 20mM

Structure (SMILES)	Dampens urease activity
C[C@H](O)C(=O)O [L-Lactic acid, L-(+)-Lactic acid]	No
CC(=O)O [Acetic acid, Acetic Acid, Glacial]	No
O=C(O)C(O)Cc1ccccc1 (racemic) [Phenyllactate, (+/-)-3-Phenyllactic acid]	No
N[C@@H](Cc1c[nH]cn1)C(=O)O [L-Histidine]	No
NCC(=O)O [Glycine]	No

Same assay, conditions: highest concentration tested 400uM

Structure (SMILES)	Urease dampening activity
O=c1[nH]c(=O)c2nc[nH]c2[nH]1 [xanthine, Xanthine]	No

Same assay, conditions: highest concentration tested 2.5mM

Structure (SMILES)	Urease dampening activity
N[C@@H](Cc1ccc(O)cc1)C(=O)O [tyrosine, L-Tyrosine disodium salt dihydrate]	No

Same assay, conditions: highest concentration tested 10mM in 20%DMSO

Structure (SMILES)	Urease dampening activity
O=Cc1c[nH]c2ccccc12 [3-formylindole, Indole-3-carboxyaldehyde]	No
O=C(O)C(=O)c1c[nH]c2ccccc12 [3-indoleglyoxylic acid]	No

Same assay, conditions: highest concentration tested 15mM in 10% ethanol

Structure (SMILES)	Urease dampening activity
O=C(O)C(=O)Cc1ccc(O)cc1 [4-hydroxyphenylpyruvate, 4-Hydroxyphenylpyruvic acid]	No

Same assay, conditions: potassium phosphate buffer, dose response

Structure (SMILES)	effect on P. mirabilis urease activity (whole cell)
O=C(O)[C@@H](O)Cc1cnc[nH]1 [imidazole lactate]	reproducibly decreased

Same assay, conditions: screen of candidate metabolites; highest concentration tested 20mM; * Trending but not statistically significant

Structure (SMILES)	Urease dampening activity
NCCCCCN [cadaverine, Cadaverine]	No
O=C([O-])CCC(O)C(=O)[O-].[Na+].[Na+] (racemic) [2-hydroxyglutarate, DL-α-Hydroxyglutaric acid disodium salt]	No
NC(N)=NCCC[C@@H](N)C(=O)O [D-Arginine]	No
CC(C)CC(=O)C(=O)O [4-methyl-2-oxopentanoate, 4-Methyl-2-oxovaleric acid]	No
NCCc1ccccc1 [phenethylamine, 2-Phenylethylamine]	No
NC(COP(=O)(O)O)C(=O)O (racemic) [Ophospho-D,L-serine]	No
CCC(C)C(=O)C(=O)[O-].[Na+] (racemic) [3-methyl-2-oxovalerate, (±)-3-Methyl-2-oxovaleric acid sodium salt]	No
CC(=O)NCCCCN.Cl [N-acetylputrescine, N-Acetylputrescine Hydrochloride]	No
CC[C@H](C)[C@H](NC(C)=O)C(=O)O [N-acetylisoleucine, N-acetyl-L-isoleucine]	No
NC(N)=NCCCC[C@H](N)C(=O)O [homoarginine, H-HoArg-OH]	No
CC(=O)NCCCCCN [N-(5-Aminopentyl)acetamide]	No
NCCCCN [putrescine, Putrescine Dihydrochloride]	No
O=C1N[C@@H](Cc2ccc(O)cc2)C(=O)N2CCC[C@@H]12 [cyclo(pro-tyr), Cyclo(-Pro-Tyr)]	No
Cl.Cl.NCCCCCN [Cadaverine dihydrochloride]	No
NCCc1c[nH]cn1 [Histamine free base]	Yes*
O=C1NC(Cc2ccccc2)C(=O)N2CCCC12 (stereo not drawn) [cyclo(phe-pro), Cyclo(Phe-Pro)]	No
N[C@@H](Cc1ccccc1)C(=O)O [phenylalanine, L-phenylalanine]	No
N[C@@H](COP(=O)(O)O)C(=O)O [Ophospho-L-serine]	No
Nc1ncnc2c1ncn2C1OC(COP(=O)(O)O)C(O)C1O (stereo not drawn) [adenosine 5'-monophosphate (AMP), AMP sodium salt hydrate]	No
Nc1ccn([C@@H]2O[C@H](CO)[C@@H](O)[C@H]2O)c(=O)n1 [cytidine, Cytidine]	No
Nc1ncnc2c1ncn2[C@@H]1O[C@@H]2COP(=O)(O)O[C@H]2[C@H]1O [adenosine 3',5'-cyclic monophosphate (cAMP)]	No
O=C([O-])[C@H](O)[C@@H](O)[C@H](O)[C@H](O)CO.[Na+] [gluconate, Gluconic acid Sodium Salt]	No
OC[C@H]1O[C@@](CO)(O[C@H]2O[C@H](CO)[C@@H](O)[C@H](O)[C@H]2O)[C@@H](O)[C@@H]1O [sucrose, Sucrose]	No
N=C(N)NCCC[C@H](N)C(=O)O [L-Arginine]	No
